According to patent US8017612B2, “Piperazine compound and use thereof as a HCV polymerase inhibitor” (priority 2006, dated 2011):

Experiments:
[1] = biological target: T1, HCV polymerase (NS5B) type 1b (Hepatitis C virus genotype 1b, UniProt P26663); assay: Assay of enzyme (HCV polymerase) inhibitory activity, type 1b enzyme; type: biochemical, HCV BK strain (type 1b); settings: HCV polymerase inhibitory activity IC50, 1b, type 1b enzyme
T1 construct: a region encoding NS5B (J Virol 1991 March, 65(3), 1105-13, 544 amino acids after deletion of 47 amino acids on the C-terminal); 6xHis (C); made in house; host or cells: Escherichia coli
In short: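 Rxn: NS5B 1b (BK, ΔC47, His6) 0.5 μg/ml; substrate RNA 5 μg/ml; ATP/GTP/CTP 50 μM, UTP 2 μM + [5,6-3H]UTP; 20 mM Tris pH 7.5, 5 mM MgCl2, 50 mM NaCl, 1 mM EDTA/DTT. 25 °C, 60 min. Stop with TCA/pyrophosphate, filter, scintillation count; IC50 vs. untreated.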

[2] = biological target: T2, HCV polymerase (NS5B) type 1a (Hepatitis C virus genotype 1a, UniProt P26664); assay: Assay of enzyme (HCV polymerase) inhibitory activity, type 1a enzyme; type: biochemical, HCV type 1a (cloned from the blood of patients); settings: HCV polymerase inhibitory activity IC50, 1a, type 1a enzyme
T2 construct: made in house; host or cells: Escherichia coli (by the 'similar method' of the 1b enzyme)
In short: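 NS5B Δ47 C-term His6 (type 1a, 1.5 μg/ml); substrate RNA 5 μg/ml; ATP/GTP/CTP 50 μM, UTP 2 μM + [5,6-3H]UTP; Tris pH 7.5, MgCl2 5 mM; 25° C, 60 min. TCA/pyrophosphate stop, GF/B filter, scintillation. IC50 vs no-compound control.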

CCCc1ccc(CNC(=O)[C@H]2CN(c3nc4cc(C(=O)OC(C)(C)C)ncc4s3)CCN2S(=O)(=O)c2ccc(OC(F)(F)F)cc2)cc1 [Example 1081, 2-[(R)-3-(4-propyl-benzylcarbamoyl)-4-(4-trifluoromethoxy-benzenesulfonyl)-piperazin-1-yl]-thiazolo[5,4-c]pyridine-6-carboxylic acid tert-butyl ester]
IC50 [1]: < 0.1 µM | IC50 [2]: < 0.1 µM

CCCc1ccc(CNC(=O)[C@H]2CN(c3nc4cc(C(=O)O)ncc4s3)CCN2S(=O)(=O)c2ccc(OC(F)(F)F)cc2)cc1 [Example 1082, 2-[(R)-3-(4-propyl-benzylcarbamoyl)-4-(4-trifluoromethoxy-benzenesulfonyl)-piperazin-1-yl]-thiazolo[5,4-c]pyridine-6-carboxylic acid]
IC50 [1]: < 0.1 µM | IC50 [2]: < 0.1 µM

CCCc1ccc(CNC(=O)[C@H]2CN(c3nc4c(C(=O)OCC)cncc4s3)CCN2S(=O)(=O)c2ccc(OC(F)(F)F)cc2)cc1 [Example 1083, 2-[(R)-3-(4-propyl-benzylcarbamoyl)-4-(4-trifluoromethoxy-benzenesulfonyl)-piperazin-1-yl]-thiazolo[5,4-c]pyridine-7-carboxylic acid ethyl ester]
IC50 [1]: < 0.1 µM | IC50 [2]: < 0.1 µM

CCCc1ccc(CNC(=O)[C@H]2CN(c3nc4c(C(=O)O)cncc4s3)CCN2S(=O)(=O)c2ccc(OC(F)(F)F)cc2)cc1 [Example 1084, 2-[(R)-3-(4-propyl-benzylcarbamoyl)-4-(4-trifluoromethoxy-benzenesulfonyl)-piperazin-1-yl]-thiazolo[5,4-c]pyridine-7-carboxylic acid]
IC50 [1]: < 0.1 µM | IC50 [2]: < 0.1 µM

O=C(NCc1ccc(OC(F)F)c(F)c1)[C@H]1CN(c2nc3nc(C(F)(F)F)ncc3s2)CCN1S(=O)(=O)c1ccc(C(F)(F)F)cc1 [Example 1085, (R)-1-(4-trifluoromethyl-benzenesulfonyl)-4-(5-trifluoromethyl-thiazolo[4,5-d]pyrimidin-2-yl)-piperazine-2-carboxylic acid 4-difluoromethoxy-3-fluoro-benzylamide]
IC50 [1]: < 0.1 µM | IC50 [2]: < 0.1 µM

O=C(NCc1ccc(OC(F)(F)F)cc1)[C@H]1CN(c2nc3ccc(=O)[nH]c3s2)CCN1S(=O)(=O)c1ccc(C(F)(F)F)cc1 [Example 1086, (R)-4-(5-oxo-4,5-dihydro-thiazolo[5,4-b]pyridin-2-yl)-1-(4-trifluoromethyl-benzenesulfonyl)-piperazine-2-carboxylic acid 4-trifluoromethoxy-benzylamide]
IC50 [1]: < 0.1 µM | IC50 [2]: < 0.1 µM

O=C(NCc1ccc(OC(F)(F)F)cc1)[C@H]1CN(c2nc3nc(OC(F)F)ncc3s2)CCN1S(=O)(=O)c1ccc(OC(F)(F)F)cc1 [Example 1087, (R)-4-(5-difluoromethoxy-thiazolo[4,5-d]pyrimidin-2-yl)-1-(4-trifluoromethoxy-benzenesulfonyl)-piperazine-2-carboxylic acid 4-trifluoromethoxy-benzylamide]
IC50 [1]: < 0.1 µM | IC50 [2]: < 0.1 µM

CC(C)c1cc(=O)nc2sc(N3CCN(S(=O)(=O)c4ccc(OC(F)(F)F)cc4)[C@@H](C(=O)NCc4ccc(OC(F)(F)F)cc4)C3)nn12 [Example 1088, (R)-4-(5-isopropyl-7-oxo-7H-[1,3,4]thiadiazolo[3,2-a]pyrimidin-2-yl)-1-(4-trifluoromethoxy-benzenesulfonyl)-piperazine-2-carboxylic acid 4-trifluoromethoxy-benzylamide]
IC50 [1]: < 0.1 µM | IC50 [2]: < 0.1 µM

CC(C)c1cc(=O)nc2sc(N3CCN(S(=O)(=O)c4ccc(OC(F)(F)F)cc4)[C@@H](C(=O)NCc4ccc(OC(F)F)cc4)C3)nn12 [Example 1089, (R)-4-(5-isopropyl-7-oxo-7H-[1,3,4]thiadiazolo[3,2-a]pyrimidin-2-yl)-1-(4-trifluoromethoxy-benzenesulfonyl)-piperazine-2-carboxylic acid 4-difluoromethoxy-benzylamide]
IC50 [1]: < 0.1 µM | IC50 [2]: < 0.1 µM

Nc1nc(C2CC2)nc2nc(N3CCN(S(=O)(=O)c4ccc(OC(F)(F)F)cc4)[C@@H](C(=O)NCc4ccc(OC(F)(F)F)cc4)C3)sc12 [Example 1090, (R)-4-(7-amino-5-cyclopropyl-thiazolo[4,5-d]pyrimidin-2-yl)-1-(4-trifluoromethoxy-benzenesulfonyl)-piperazine-2-carboxylic acid 4-trifluoromethoxy-benzylamide]
IC50 [1]: < 0.1 µM | IC50 [2]: < 0.1 µM

CC(C)(O)c1nc(N)c2sc(N3CCN(S(=O)(=O)c4ccc(OC(F)(F)F)cc4)[C@@H](C(=O)NCc4ccc(OC(F)(F)F)cc4)C3)nc2n1 [Example 1091, (R)-4-[7-amino-5-(1-hydroxy-1-methyl-ethyl)-thiazolo[4,5-d]pyrimidin-2-yl]-1-(4-trifluoromethoxy-benzenesulfonyl)-piperazine-2-carboxylic acid 4-trifluoromethoxy-benzylamide]
IC50 [1]: < 0.1 µM | IC50 [2]: < 0.1 µM

CCCc1ccc(CNC(=O)[C@H]2CN(c3nc(C)c(C(O)C(=O)O)s3)CCN2S(=O)(=O)c2ccc(OC(F)(F)F)cc2)cc1 (stereo partly drawn) [Example 1092, hydroxy-{4-methyl-2-[(R)-3-(4-propyl-benzylcarbamoyl)-4-(4-trifluoromethoxy-benzenesulfonyl)-piperazin-1-yl]-thiazol-5-yl}-acetic acid]
IC50 [1]: < 0.1 µM | IC50 [2]: 0.1 to 1 µM

CCN(C)c1ccc(CNC(=O)[C@H]2CN(c3nc(Cl)c(C(=O)O)s3)CCN2S(=O)(=O)c2ccc(OC(F)(F)F)cc2)cc1 [Example 1093, 4-chloro-2-[(R)-3-[4-(ethyl-methyl-amino)-benzylcarbamoyl]-4-(4-trifluoromethoxy-benzenesulfonyl)-piperazin-1-yl]-thiazole-5-carboxylic acid]
IC50 [1]: < 0.1 µM | IC50 [2]: < 0.1 µM

CCCc1ccc(CNC(=O)[C@H]2CN(c3cc(C)n(CC(=O)O)n3)CCN2S(=O)(=O)c2ccc(OC(F)(F)F)cc2)cc1 [Example 1094, {5-methyl-3-[(R)-3-(4-propyl-benzylcarbamoyl)-4-(4-trifluoromethoxy-benzenesulfonyl)-piperazin-1-yl]-pyrazol-1-yl}-acetic acid]
IC50 [1]: 0.1 to 1 µM | IC50 [2]: 0.1 to 1 µM

CC[N+](CC)(CC)Cc1cnc(N2CCN(S(=O)(=O)c3ccc(OC(F)(F)F)cc3)[C@@H](C(=O)NCc3ccc(C(C)(C)C)cc3)C2)cn1 [Example 1095, [(R)-3-(4-tert-butyl-benzylcarbamoyl)-4-(4-trifluoromethoxy-benzenesulfonyl)-3,4,5,6-tetrahydro-2H-[1,2′]bipyrazinyl-5′-ylmethyl]-triethyl-ammonium trifluoro-methanesulfonate]
IC50 [1]: 0.1 to 1 µM | IC50 [2]: 0.1 to 1 µM

CCC(F)(F)c1ccc(CNC(=O)[C@H]2CN(C(=O)Cn3nnc(N)n3)CCN2S(=O)(=O)c2ccc(OC(F)(F)F)cc2)cc1 [Example 1096, (R)-4-[2-(5-amino-tetrazol-2-yl)-acetyl]-1-(4-trifluoromethoxy-benzenesulfonyl)-piperazine-2-carboxylic acid 4-(1,1-difluoro-propyl)-benzylamide]
IC50 [1]: < 0.1 µM | IC50 [2]: < 0.1 µM

CCC(F)(F)c1ccc(CNC(=O)[C@H]2CN(C(=O)Cn3nnnc3N)CCN2S(=O)(=O)c2ccc(OC(F)(F)F)cc2)cc1 [Example 1097, (R)-4-[2-(5-amino-tetrazol-1-yl)-acetyl]-1-(4-trifluoromethoxy-benzenesulfonyl)-piperazine-2-carboxylic acid 4-(1,1-difluoro-propyl)-benzylamide]
IC50 [1]: 0.1 to 1 µM | IC50 [2]: 0.1 to 1 µM

O=C(NCc1ccc(OC(F)(F)F)cc1)[C@H]1CN(c2nc3nc(CCO)ncc3s2)CCN1S(=O)(=O)c1ccc(OC(F)(F)F)cc1 [Example 1098, (R)-4-[5-(2-hydroxy-ethyl)-thiazolo[4,5-d]pyrimidin-2-yl]-1-(4-trifluoromethoxy-benzenesulfonyl)-piperazine-2-carboxylic acid 4-trifluoromethoxy-benzylamide]
IC50 [1]: < 0.1 µM | IC50 [2]: < 0.1 µM

O=C(NCc1ccc(OC(F)(F)F)cc1)[C@H]1CN(c2nc3nc(C4CC4)ncc3s2)CCN1S(=O)(=O)c1ccc(C2CC2)cc1 [Example 1099, (R)-1-(4-cyclopropyl-benzenesulfonyl)-4-(5-cyclopropyl-thiazolo [4,5-d]pyrimidin-2-yl)-piperazine-2-carboxylic acid 4-trifluoromethoxy-benzylamide]
IC50 [1]: < 0.1 µM | IC50 [2]: < 0.1 µM

O=C(NCc1ccc(OC(F)(F)F)cc1)[C@H]1CN(c2nc3nc(C(F)(F)F)ncc3s2)CCN1S(=O)(=O)c1ccc(C2CC2)cc1 [Example 1100, (R)-4-(5-trifluoromethyl-thiazolo[4,5-d]pyrimidin-2-yl)-1-(4-cyclopropyl-benzenesulfonyl)-piperazine-2-carboxylic acid 4-trifluoromethoxy-benzylamide]
IC50 [1]: < 0.1 µM | IC50 [2]: < 0.1 µM

O=C(NCc1ccc(OC(F)(F)F)c(F)c1)[C@H]1CN(c2nc3nc(C4CC4)ncc3s2)CCN1S(=O)(=O)c1ccc(C(F)(F)F)cc1 [Example 1101, (R)-4-(5-cyclopropyl-thiazolo[4,5-d]pyrimidin-2-yl)-1-(4-trifluoromethyl-benzenesulfonyl)-piperazine-2-carboxylic acid 3-fluoro-4-trifluoromethoxy-benzylamide]
IC50 [1]: < 0.1 µM | IC50 [2]: < 0.1 µM
